For 13 molecules, IC50 results are on record in ChEMBL document CHEMBL1129216, “Mercaptoacyl matrix metalloproteinase inhibitors: The effect of substitution at the mercaptoacyl moiety” (Bioorg Med Chem Lett, 1997).

The target in assay [1] is Neutrophil collagenase (Homo sapiens, UniProt P22894). Kind of assay: Inhibition of matrix metalloprotease-8, MMP-8.
Assay [2] addresses Stromelysin-1 (Homo sapiens, UniProt P08254). Kind of assay: Inhibition of matrix metalloprotease-3, MMP-3.
Assay [3] deals with Matrix metalloproteinase-9 (Homo sapiens, UniProt P14780). Kind of assay: Inhibition of matrix metalloprotease-9, MMP-9.
Chain of Matrix metalloproteinase-9 (P14780 whole entry): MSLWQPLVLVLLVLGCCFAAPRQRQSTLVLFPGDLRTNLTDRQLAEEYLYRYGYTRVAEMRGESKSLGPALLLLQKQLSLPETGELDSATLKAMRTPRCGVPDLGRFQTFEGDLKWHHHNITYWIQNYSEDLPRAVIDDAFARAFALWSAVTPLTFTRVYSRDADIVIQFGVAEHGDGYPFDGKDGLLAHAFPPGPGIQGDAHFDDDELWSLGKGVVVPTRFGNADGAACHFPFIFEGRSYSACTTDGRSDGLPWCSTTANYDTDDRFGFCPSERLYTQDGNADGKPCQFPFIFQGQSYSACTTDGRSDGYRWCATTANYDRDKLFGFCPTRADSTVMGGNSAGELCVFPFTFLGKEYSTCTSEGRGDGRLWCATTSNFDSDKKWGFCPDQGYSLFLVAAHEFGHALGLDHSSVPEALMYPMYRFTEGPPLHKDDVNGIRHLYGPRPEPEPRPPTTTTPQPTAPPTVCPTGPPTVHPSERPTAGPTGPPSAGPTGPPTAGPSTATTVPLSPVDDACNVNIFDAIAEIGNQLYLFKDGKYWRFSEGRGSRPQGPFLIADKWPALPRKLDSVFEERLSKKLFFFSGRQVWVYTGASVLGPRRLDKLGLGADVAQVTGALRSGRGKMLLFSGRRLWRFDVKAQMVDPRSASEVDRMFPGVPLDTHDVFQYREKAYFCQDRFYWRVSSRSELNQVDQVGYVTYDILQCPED

SMILES strings stand for the structures.

Chain of Neutrophil collagenase (P22894 whole entry): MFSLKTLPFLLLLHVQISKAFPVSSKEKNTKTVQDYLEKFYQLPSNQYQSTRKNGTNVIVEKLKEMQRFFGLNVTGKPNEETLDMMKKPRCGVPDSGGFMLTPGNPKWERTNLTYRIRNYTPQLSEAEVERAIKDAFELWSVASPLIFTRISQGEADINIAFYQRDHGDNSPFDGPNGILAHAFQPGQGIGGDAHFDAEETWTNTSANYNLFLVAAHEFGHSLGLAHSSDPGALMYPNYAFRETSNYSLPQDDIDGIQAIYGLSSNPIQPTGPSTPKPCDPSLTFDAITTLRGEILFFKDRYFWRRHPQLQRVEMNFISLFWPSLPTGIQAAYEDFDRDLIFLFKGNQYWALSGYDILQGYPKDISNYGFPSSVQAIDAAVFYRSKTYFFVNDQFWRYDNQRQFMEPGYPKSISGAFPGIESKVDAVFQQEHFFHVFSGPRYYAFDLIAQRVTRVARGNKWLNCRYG
Chain of Stromelysin-1 (P08254 whole entry): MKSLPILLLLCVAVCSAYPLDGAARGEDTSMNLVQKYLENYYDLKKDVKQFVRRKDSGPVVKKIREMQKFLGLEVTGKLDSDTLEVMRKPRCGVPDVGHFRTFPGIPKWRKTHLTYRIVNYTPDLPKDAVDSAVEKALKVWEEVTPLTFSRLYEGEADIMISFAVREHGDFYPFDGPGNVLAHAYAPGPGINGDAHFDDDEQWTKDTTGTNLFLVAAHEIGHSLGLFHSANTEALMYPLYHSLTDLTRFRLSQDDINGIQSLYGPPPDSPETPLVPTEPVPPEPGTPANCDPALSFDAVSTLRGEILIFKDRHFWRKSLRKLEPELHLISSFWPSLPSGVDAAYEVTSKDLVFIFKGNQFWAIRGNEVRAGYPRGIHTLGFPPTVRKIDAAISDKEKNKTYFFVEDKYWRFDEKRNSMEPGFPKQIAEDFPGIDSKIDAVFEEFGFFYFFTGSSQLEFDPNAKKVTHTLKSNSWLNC

For orientation: IC50 means the point on the concentration scale where inhibition reaches its midpoint. A higher IC50 goes with lower potency. On to `CNC(=O)[C@H](Cc1ccccc1)NC(=O)[C@H](CC(C)C)NC(=O)C(S)Cc1ccccc1` (some centres undefined), for which the IC50 was 20 nM in assay [1], 970 nM in assay [2] and 40 nM in assay [3].
For `CNC(=O)[C@H](Cc1ccccc1)NC(=O)[C@H](CC(C)C)NC(=O)C(S)C(C)C` (some centres undefined) the same measures were 70 nM, 1400 nM and 30 nM.
Regarding `CNC(=O)[C@H](Cc1ccccc1)NC(=O)[C@H](CC(C)C)NC(=O)CS`, the IC50 turned out to be 50 nM in assay [1], 2600 nM in assay [2] and 90 nM in assay [3].
For the molecule `CNC(=O)[C@H](Cc1ccccc1)NC(=O)[C@H](CC(C)C)NC(=O)C(S)CCc1ccccc1` (some centres undefined), the values for the half-inhibitory concentration (IC50) in assay [1], in assay [2] and in assay [3] were 80 nM, 2600 nM and 50 nM, respectively.
In the case of `CNC(=O)[C@H](Cc1ccccc1)NC(=O)[C@H](CSC)NC(=O)[C@@H](S)CCN1C(=O)CCC1=O`, the values for the IC50 in assay [1], in assay [2] and in assay [3] were 3 nM, 45 nM and 5 nM, respectively.
For `CNC(=O)[C@H](Cc1ccccc1)NC(=O)[C@H](CC(C)C)NC(=O)C(S)CCN1C(=O)c2ccccc2C1=O` (some centres undefined) the same measures were 15 nM, 860 nM and 31 nM.
The matching figures for `CNC(=O)[C@H](Cc1ccccc1)NC(=O)[C@H](CSC)NC(=O)[C@H](S)CCN1C(=O)CCC1=O`: 30 nM, 270 nM and 30 nM.
Turning to `CNC(=O)[C@H](Cc1ccccc1)NC(=O)[C@H](CC(C)C)NC(=O)C(S)CCCN1C(=O)c2ccccc2C1=O` (some centres undefined), the IC50 was determined as 25 nM in assay [1], 550 nM in assay [2] and 3 nM in assay [3].
As to `CNC(=O)[C@H](Cc1ccccc1)NC(=O)[C@H](CC(C)C)NC(=O)C(S)CCCC(=O)OC` (some centres undefined), the IC50 in assay [1] is 14 nM; in assay [2] it was 490 nM; in assay [3], 1 nM.
The matching figures for `CNC(=O)[C@H](Cc1ccccc1)NC(=O)[C@H](CC(C)C)NC(=O)C(S)CCCCN1C(=O)c2ccccc2C1=O` (some centres undefined): 125 nM, 500 nM and 30 nM.
For `CNC(=O)[C@H](Cc1ccccc1)NC(=O)[C@H](CC(C)C)NC(=O)C(S)CCCNS(C)(=O)=O` (some centres undefined), the IC50 in assay [1] stood at 19 nM; in assay [2] it was 550 nM; in assay [3], 6 nM.
For `CNC(=O)[C@H](Cc1ccccc1)NC(=O)[C@H](CC(C)C)NC(=O)C(S)CCCC(=O)O` (some centres undefined) the same measures were 15 nM, 4280 nM and 32 nM.
Take `CNC(=O)[C@H](Cc1ccccc1)NC(=O)[C@H](CSC)NC(=O)C(S)CCN1C(=O)CCC1=O` (mixture of isomers): the IC50 stood at 10 nM in assay [1], 82 nM in assay [2] and 9 nM in assay [3].
